Measured values taken from patent US11247947B2, “Method of high-pressure purification of [f-18]FEONM” (Institute of Nuclear Energy Research, Atomic Energy …, priority 2019, dated 2022).

Key:
[1] = shake-flask lipophilicity (Log P) detection; format: physicochemical; conditions: for Log P: shake-flask gold standard detection
Description: Besides, the present invention further designs a novel naphthol analogue, [F-18]FEONM, with lipophilicity increased. This is consistent with the concept of the structure design for the present invention. By adding a —C2H4O— functional group to a F-18 end, the lipophilicity of [F-18]FEONM is increased to obtain a potential novel brain imaging agent. The present invention develops the high-pressure isolation and purification to achieve the purpose of purification of [F-18]FEONM without toxic compounds.

[2] = test system: P301S/PS19 transgenic mice; experiment: brain uptake biodistribution of [F-18]FEONM in P301S/PS19 transgenic mice; format: in vivo; conditions: 12~13 month-old P301S/PS19 transgenic mice; product purified through an alumina solid-phase extraction column; FIG. 2

| Structure (SMILES) | Log P [1] | lipophilicity compared with [F-18]FDDNP ([1]; same shake-flask gold standard detection) | brain uptake biodistribution ratios (result in words) [2] |
| --- | --- | --- | --- |
| CC(=C(C#N)C#N)c1ccc2cc(N(C)CC[18F])ccc2c1 [[F-18]FDDNP, reference compound] | 1.93 ± 0.10 |  |  |
| CC(=C(C#N)C#N)c1ccc2cc(N(C)CCOCCF)ccc2c1 [[F-18]FEONM] | 2.20 ± 0.17 | higher than [F-18]FDDNP | effective to Alzheimer disease stages |
